Results taken from patent US20240252594A1, “COMBINATION THERAPY FOR NEURODEGENERATIVE DISEASES” (ALETA NEUROSCIENCE, LLC, priority 2021, published 2024).

What was measured:
IL-1B = assay: LPS/ATP-induced neuroinflammation in microglia: IL-1B; format: cell-based, human; conditions: compared with […] distilled water in presence of LPS and ATP
[1] = test system: CXCL1/GROα mediated neuroinflammation in microglial cells; assay: LPS/ATP-induced neuroinflammation in microglia: CXCL1/GROα secretion (Luminex); format: cell-based, human; conditions: for CXCL1/GROα in supernatant, Mean ± S.D. / CXCL1/GROα in supernatant, Replicate 1 / CXCL1/GROα in supernatant, Replicate 2 / CXCL1/GROα in supernatant, Replicate 3: LPS (100 ng/mL) + ATP (5 mM), six hours after LPS
Source text: (§1) In addition to the studies discussed above assessing activity of combinations of drugs on MPP+-induced neurodegeneration toxicity on human dopaminergic neurons as well as on a human iPSC cell line harboring a triplication mutation in alpha-synuclein gene, and measuring neuronal growth, neurite branching and neurofilament heavy chain, we also assessed combinations of drugs in reducing lipopolysaccharide (LPS, from E. coli)-induced neuroinflammation in human microglia cells.
(§2) Lipopolysaccharides are important outer membrane components of gram-negative bacteria such as E. coli and Salmonella. They are large amphipathic glycoconjugates that typically consist of a lipid domain (hydrophobic) attached to a core oligosaccharide and a distal polysaccharide. LPS binds to Toll-like receptor 4 (TLR4) and activates microglia(98) which in turn increases secretion of pro-inflammatory cytokines such as interleukin-6 (IL-6), tumor necrosis factor-α (TNF-α), and CXCL1/GROα.
(§3) Microglia cells were obtained from an iCell® Microglia kit, 01279 (Catalogue N^o R1131) from FUJIFILM Cellular Dynamics. We followed the manufacturer's protocol for activation of the microglial cells with LPS/ATP to subsequently measure the effect of the study drugs on pro-inflammatory cytokines IL-6, TNF-α and CXCL1/GROα.
(§4) All cell culture procedures were performed in aseptic conditions, under a laminar flow hood. Microglia were thawed and cultured following the provider's instructions. The microglia were plated at 50,000 cells per well of a Corning Primaria 96 well plate (Ref N^o 353872) in 100 μL of growth medium. Cells were incubated at 37° C./5% CO2 in a humidified cell culture incubator.
(§5) Three days after cell plating, the test or reference substances (25 μL of solutions at 5×) were applied 1 hour before LPS and ATP stimulation.
(§6) One hour later, 12.5 μL of test or reference substances were added again at 2× concentrated followed by 12.5 μL of LPS at 12× concentration. Fifty microliters of ATP were introduced at 4× concentration, 5 h 30 min after incubation with LPS.
(§7) Six hours after LPS incubation, the supernatant of each well was collected and centrifugated at 1000 g for 10 minutes to remove the cells and debris.
(§8) Fifty microliters of supernatant from NT and LPS+ATP-treated wells were used to determine cytokine secretion (IL-6, TNF-α, CXCL1/GROα) by Luminex platform according to the provider's instructions. Samples were diluted prior to the assay to fit within the standard range if needed. Three wells were tested per each condition (Table 11). Cytokines levels in the supernatant were expressed in pg/mL. The data was analyzed using a One-Way ANOVA followed by Bonferroni test.

[2] = test system: IL-6 mediated inflammation in microglial cells; assay: LPS/ATP-induced neuroinflammation in microglia: IL-6 secretion (Luminex); format: cell-based, human; conditions: for IL-6 in supernatant, Mean ± S.D. / IL-6 in supernatant, Replicate 1 / IL-6 in supernatant, Replicate 2 / IL-6 in supernatant, Replicate 3: LPS (100 ng/mL) + ATP (5 mM), six hours after LPS
Source text: as §1, §2, §3, §4, §5, §6, §7, §8

[3] = test system: TNF-α mediated neuroinflammation in microglial cells; assay: LPS/ATP-induced neuroinflammation in microglia: TNF-α secretion (Luminex); format: cell-based, human; conditions: for TNF-α in supernatant, Mean ± S.D. / TNF-α in supernatant, Replicate 1 / TNF-α in supernatant, Replicate 2 / TNF-α in supernatant, Replicate 3: LPS (100 ng/mL) + ATP (5 mM), six hours after LPS
Source text: as §1, §2, §3, §4, §5, §6, §7, §8

[4] = test system: human dopaminergic neurons (iCell DopaNeurons); assay: MPP+-induced neurotoxicity: neurite outgrowth (neurite length, branch points) on iCell DopaNeurons; format: cell-based; conditions: for Neurite length, Mean: Table 7.1, plate 1
Source text: MPP+(1-methyl-4-phenylpyridinium) is a known neurotoxin which acts by interfering with oxidative phosphorylation in mitochondria by inhibiting complex I, a protein in the membrane of mitochondria in dopaminergic neurons in the substantia nigra.(94) The inhibition of mitochondrial function leads to the depletion of ATP and eventual cell death. MPP+ ultimately causes Parkinsonism in primates by killing certain dopamine-producing neurons in the substantia nigra.
iCell DOPA neurons are neural floor plate-derived midbrain dopaminergic neurons generated from human induced pluripotent stem cells (iPSCs). Dopaminergic neurons, specifically those located in the floor plate-derived midbrain are implicated in neurological disorders such as Parkinson's disease, MSA and DLBD among others. […] The iCellDopa neurons were supplied from FUJIFILM Cellular Dynamics.
(§9) Procedure. iCell DOPA neurons were thawed and cultured following the provider's instructions in Brainphys medium+provided supplements+1% N2 supplement (Stemcell Technologies)+penicillin/streptomycin+Laminin. They were plated at 20000 cells per well of a 384 well plate (pre-coated with poly-D-lysine and Laminin) in 70 μL of growth medium. Cells were incubated at 37° ° C./5% CO2 in a humidified cell culture incubator. Half of the culture medium was changed twice a week.
(§10) MPP+-induced neurotoxicity: 24 hours after neuronal plating, half of the medium was removed and the test compounds were applied with MPP+ treatment, both concentrated at 4×, were added to the wells. For each well, five aliquots were added, corresponding columns A-E in Table 3. In each row, either the compound indicated dissolved in its vehicle noted in Table 2 was added, or only a vehicle was added as indicated. Column E is an indicator of whether MPP+ was added. If not, only the medium was added.
(§11) For the evaluation of conditions 8, 10,12, 22, 24, Neurite outgrowth was followed for subsequent 48 hours using an Incucyte Zoom platform with one phase contrast image every 4 hours, using a 20× objective. After 48 hours, the medium containing test compounds and MPP+ was removed and replaced by fresh medium containing a fluorescent cytolysis marker (red fluorescence) and a live cell marker (green fluorescence). For the evaluation of conditions 10, 12, 24, 38, 40, 51-53, Neurite outgrowth was followed similarly for subsequent 72 hours after MPP+ was added.
Assay endpoints and data analysis. Phase contrast images were analyzed at each time point to determine the neurite length and number of branch points per mm^2. Kinetic data was plotted and kinetics were normalized by subtracting the value of the first data point (at time of treatment), allowing to measure changes in neurite outgrowth only from the onset of the treatment, starting at zero. Area Under Curve (AUC) of kinetic data was obtained and used for plotting compound's effects and perform statistical analyzes.

HD patients = conditions: up to 15 g/day; cited from earlier work
G93A transgenic ALS mice = conditions: mouse, in vivo; cited from earlier work
[5] = test system: human dopaminergic neurons (iCell DopaNeurons); assay: MPP+-induced neurotoxicity: cytolysis of iCell DopaNeurons; format: cell-based; conditions: with MPP+ 100 μM
Method: Three different measurements were made in the experiments. Neurite length in mm was measured, which is a measure of increase in dendril length of neurons. […] Secondly, neurite branching was measured. […] Thirdly, cytolysis of the cells was measured. […] Experimental conditions were measured relative to the results of healthy cells in the studies.
as §9, §10, §11
Data was normalized to control conditions as there is basal cytolysis in the cell culture after thawing.

[6] = test system: iPSC-derived dopaminergic (DA) neurons harboring triplication of the α-synuclein locus; assay: α-Synuclein triplication cell line: neurofilament heavy chain signal intensity; format: cell-based, human; conditions: normalized to Hoechst signal; three months treatment; PBA 500 μM, TUDCA 50 μM, EXD 100 nM
Method: We used 12 replicas for each experimental condition and 16 replicas for control (untreated cells). […] Cells were washed three times with warm phosphate buffered saline (PBS) and imaged immediately at 20× magnification on an imageXpress Micro confocal at 37° C. and 5% CO2.
Following imaging, cells were immediately fixed with 4% paraformaldehyde for 30 minutes at room temperature, washed three times with PBS, permeabilized with 0.2% Triton X-100 for 30 minutes, blocked with Odyssey Blocking Buffer for 60 minutes, and incubated overnight at 4° C. with primary antibodies, neurofilament (1:1000, Synaptic Systems 171 002) and LB509 (1:100, Abcam ab27766). Cells were washed 3× with 0.1% Tween-20 in PBS and incubated with Alexa Fluor Goat Anti-Rabbit 790 (1:1000) and Goat Anti-Mouse 647 (1:1000) for 1 hour at RT, before washing 3× with 0.1% Tween-20 in PBS and imaging with Sapphire Biomolecular Imager. Neurofilament heavy chain signal intensity was normalized to fixed Hoechst signal measured with Spectra Gemini plate reader (ex=350 nm, em=461 nm), using Hoechst 33342 nucleic acid stain from Invitrogen according to the manufacturer's instructions. Neurofilaments (NF) are located mostly in axons and indicate roughly the content of neurites. If neurodegeneration is halted or reversed, NF signal increases because it correlates with the number and/or length of neurites in the well.

Alzheimer's disease = conditions: cited from earlier work
[7] = compared with […] distilled water in presence of LPS and ATP
[8] = Table 7.2, plate 1, with MPP+ 100 μM, 72 hours

Compound	Effect on IL-1B concentration (in words) (IL-1B)	CXCL1/GROα in supernatant, Mean ± S.D. [1] [pg/mL]	CXCL1/GROα in supernatant, Replicate 1 [1] [pg/mL]	CXCL1/GROα in supernatant, Replicate 2 [1] [pg/mL]	CXCL1/GROα in supernatant, Replicate 3 [1] [pg/mL]	IL-6 in supernatant, Mean ± S.D. [2] [pg/mL]	IL-6 in supernatant, Replicate 1 [2] [pg/mL]	IL-6 in supernatant, Replicate 2 [2] [pg/mL]	IL-6 in supernatant, Replicate 3 [2] [pg/mL]	Effect on IL-6 concentration (in words) [2, 7]	TNF-α in supernatant, Mean ± S.D. [3] [pg/mL]	TNF-α in supernatant, Replicate 1 [3] [pg/mL]	TNF-α in supernatant, Replicate 2 [3] [pg/mL]	TNF-α in supernatant, Replicate 3 [3] [pg/mL]	Effect on TNF-α concentration (in words) [3, 7]	Neurite length, Mean ([4]; with MPP+ 100 μM, 72 hours) [mm/mm^2]	Neurite Branching, Mean ± S.D. [4, 8] [per mm^2]	Cytolysis, Mean ± S.D. ([5]; Table 9.1, plate 1) [%]	other results
CC(C)(O)c1coc(S(=O)(=O)NC(=O)Nc2c3c(cc4c2CCC4)CCC3)c1 [MCC950]	significantly decreased	469.39 ± 82.91	375.70	499.15	533.31	256.48 ± 40.04	253.54	297.91	218.00	significantly decreased	30.95 ± 2.25	29.44	29.87	33.53	significantly decreased	–	–	–	–
O=C([O-])CCCc1ccccc1.[Na+] [PBA, Sodium 4-phenylbutyrate]	–	495.79 ± 122.99	627.29	383.60	476.49	355.23 ± 45.97	396.23	363.94	305.53	–	33.46 ± 1.75	32.67	35.47	32.24	–	1681.1	46742.8 ± 7107.5	72.06 ± 1.77	Increase of number of branch points compared with MPP+ alone (control/MPP+) ([4]; AUC, MPP+ 100 μM): 89%; Protective effect on neurite length and branching (in words) ([4]; MPP+ 100 μM): much less protective effect than combination 8; Neurite length - Baseline-corrected AUC (0-72 h), Mean ([4]; Table 5.1, plate 1, with MPP+ 100 μM): 853.7 mm/mm^2; Number of branch points per mm^2 - Baseline-corrected AUC (0-72 h), Mean ([4]; Table 5.2, plate 1, with MPP+ 100 μM): 41712.8 per mm^2; Safety and tolerability (HD patients): safe and well-tolerated; Decrease of IL-6 concentration [2, 7]: 49%; Survival (G93A transgenic ALS mice): significantly extended survival; Decrease of TNF-α concentration [3, 7]: 44%; Neurofilament Heavy Chain signal intensity, mean [6]: 1.088
CC(C)[C@H](NC(=O)c1ccc2ccccc2n1)C(=O)N[C@@H](CC(=O)O)C(=O)COc1c(F)cccc1F [PCI/MPP+, Q-VD-OPh]	–	–	–	–	–	–	–	–	–	–	–	–	–	–	–	1301.0	38456.3 ± 11570.7	65.56 ± 1.89	Neurite length, Mean ± S.D. ([4]; Table 8.1, plate 2, with MPP+ 100 μM, 72 hours): 1430.1 ± 321.7 mm/mm^2; Neurite Branching, Mean ± S.D. ([4]; Table 8.2, plate 2, with MPP+ 100 μM, 72 hours): 52610.1 ± 16660.1 per mm^2; Cytolysis, Mean ± S.D. ([5]; Table 9.2, plate 2): 67.93 ± 3.52%
CCOC(=O)C1=CCCC[C@H]1S(=O)(=O)Nc1ccc(F)cc1Cl [TAK-242]	significantly decreased	37.76 ± 6.05	35.76	32.96	44.55	10.47 ± 0.00	<10.47	<10.47	<10.47	significantly decreased	5.63 ± 0.00	<5.63	<5.63	<5.63	significantly decreased	–	–	–	Effect on GROα concentration (in words) [1, 7]: significantly decreased
Cc1cn(-c2cc(NC(=O)c3ccc(C)c(Nc4nccc(-c5cccnc5)n4)c3)cc(C(F)(F)F)c2)cn1 [nilotinib, Nilotinib]	–	–	–	–	–	–	–	–	–	–	–	–	–	–	–	–	–	–	Hippocampal volume loss attenuated (Alzheimer's disease; at 12 months): −27%; Safety (Alzheimer's disease; in vivo): safe
